Data on one molecule can be found in US8987293B2, “Morphinans useful as analgesics” (Phoenix Pharmalabs, Inc., priority 2010, dated 2015).

The target in assay [1] is T1, human kappa receptor (Homo sapiens, UniProt P41145).
T1 construct: expressed in transfected cells; host or cells: CHO cells
Briefly: [35S]GTP γS binding functional assay, CHO cell membranes. The format is biochemical. Conditions: 1 hr at 25 C.

Assay [2] concerns the target T2, human delta receptor (Homo sapiens, UniProt P41143).
T2 construct: expressed in transfected cells; host or cells: CHO cells
Briefly: Opioid receptor binding affinity, [3H]Cl-DPDPE, CHO cell membranes.

For assay [3], the target named is T2, human delta receptor. The assay can be described thus: [35S]GTP γS binding functional assay, CHO cell membranes. The format is biochemical.
The target in assay [4] is T1, human kappa receptor. The assay can be described thus: Opioid receptor binding affinity, [3H]U69593, CHO cell membranes.

T2 sequence (P41143 whole entry): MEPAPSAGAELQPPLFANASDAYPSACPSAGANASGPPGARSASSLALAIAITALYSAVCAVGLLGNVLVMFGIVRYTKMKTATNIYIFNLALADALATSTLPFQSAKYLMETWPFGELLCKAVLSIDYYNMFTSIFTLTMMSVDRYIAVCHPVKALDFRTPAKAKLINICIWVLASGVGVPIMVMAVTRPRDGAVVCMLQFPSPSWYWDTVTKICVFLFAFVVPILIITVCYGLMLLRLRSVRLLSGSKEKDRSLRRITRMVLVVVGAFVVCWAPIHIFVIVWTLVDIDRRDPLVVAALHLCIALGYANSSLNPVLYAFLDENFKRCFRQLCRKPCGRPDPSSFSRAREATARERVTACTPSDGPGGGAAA
T1 sequence (P41145 whole entry): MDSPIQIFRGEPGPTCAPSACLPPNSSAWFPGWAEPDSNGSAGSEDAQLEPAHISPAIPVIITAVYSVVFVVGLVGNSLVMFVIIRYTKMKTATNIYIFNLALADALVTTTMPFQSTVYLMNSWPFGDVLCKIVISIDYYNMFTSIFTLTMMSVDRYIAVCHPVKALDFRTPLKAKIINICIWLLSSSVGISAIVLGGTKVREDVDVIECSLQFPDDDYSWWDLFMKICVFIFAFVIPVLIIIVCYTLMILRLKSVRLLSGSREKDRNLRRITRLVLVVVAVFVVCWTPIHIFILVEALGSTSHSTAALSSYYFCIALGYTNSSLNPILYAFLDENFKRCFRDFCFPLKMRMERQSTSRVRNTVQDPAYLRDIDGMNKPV

For `C[C@H](C1CC1)N1CC[C@]23CCCC[C@H]2[C@H]1Cc1ccc(O)cc13` [Compound 5], in assay [1], the “percent stimulation at the kappa receptor” value worked out at 41.7±5.0%. The results for the inhibition constant (Ki) in assay [2] and in assay [4] were 2.47 ± 0.1 nM and 0.29 ± 0.1 nM, respectively. Also, a half-maximal effect in assay [3] (EC50) was put at 9.01 ± 2.6 nM. Moreover, the “percent stimulation at the delta receptor” value in assay [3] ([35S]GTP γS, 1 hr at 25 C) stood at 39.8±3.9%.
